How the values were obtained:
[1] = target: T1, EGFR Ex19del T854I (Homo sapiens, UniProt P00533, DEL746-750/T854I); assay: Ba/F3 cell drug screening, Cell Titer Glo; format: cell-based; settings: Ba/F3 cells expressing EGFR Ex19del T854I; 72 hours
T1 construct: expressed in transfected cells; host or cells: Ba/F3 (murine pro-B cells), retroviral transduction with pBabe-Puro based vectors
Description: (§1) Ba/F3 cell generation, drug screening, and IC50 approximations. Ba/F3 cells were obtained as a gift from Dr. Gordon Mills (MD Anderson Cancer Center), and maintained in RPMI (Sigma) containing 10% FBS, 1% penicillin/streptomycin, and 10 ng/ml recombinant mIL-3 (R&D Biosystems). To establish stable Ba/F3 cell lines, Ba/F3 cells were transduced with retroviruses containing mutant EGFR plasmids for 12-24 hours. Retroviruses were generated using Lipofectamine 2000 (Invitrogen) transfections of Phoenix 293T-ampho cells (Orbigen) with pBabe-Puro based vectors listed below in Table 6. Vectors were generated by GeneScript or Bioinnovatise using parental vectors from Addgene listed below in Table 6.
(§2) After 48-72 hours of transduction, 2 μg/ml puromycin (Invitrogen) was added to Ba/F3 cell lines in complete RPMI. To select for EGFR positive cell lines, cells were stained with PE-EGFR (Biolegend) and sorted by FACS. After sorting, EGFR positive cells were maintained in RPMI containing 10% FBS, 1% penicillin/streptomycin, and 1 ng/ml EGF to support cell viability. Drug screening was performed as previously described^41,42. Shortly, cells were plated in 384-well plates (Greiner Bio-One) at 2000-3000 cells per well in technical triplicate. Seven different concentrations of TKIs or DMSO vehicle were added to reach a final volume of 40 μL per well. After 72 hours, 11p L of Cell Titer Glo (Promega) was added to each well. Plates were incubated for a minimum of 10 minutes, and bioluminescence was determined using a FLUOstar OPTIMA plate reader (BMG LABTECH). Raw bioluminescence values were normalized to DMSO control treated cells, and values were plotted in GraphPad Prism. Non-linear regressions were used to fit the normalized data with a variable slope, and IC50 values were determined by GraphPad prism by interpolation of concentrations at 50% inhibition. Drug screens were performed in technical triplicate on each plate and either duplicate or triplicate biological replicates. Mutant to WT ratios (Mut/WT) for each drug were calculated by dividing the IC50 values of mutant cell lines by the average IC50 value of Ba/F3 cells expressing WT EGFR supplemented with 10 ng/ml EGF for each drug. Statistical differences between groups were determined by ANOVA as described in the figure legends.

[2] = target: T2, EGFR Ex19del/T790M/G724S (Homo sapiens, UniProt P00533, DEL746-750/G724S/T790M); assay: Ba/F3 cell drug screening, Cell Titer Glo; format: cell-based; settings: Ba/F3 cells expressing EGFR Ex19del/T790M/G724S; 72 hours
T2 construct: expressed in transfected cells; host or cells: Ba/F3 (retroviral transduction, pBabe-Puro based vectors)
Description: as §1, §2

[3] = target: T3, EGFR G719A T790M (Homo sapiens, UniProt P00533, G719A/T790M); assay: Ba/F3 cell drug screening, Cell Titer Glo; format: cell-based; settings: Ba/F3 cells expressing EGFR G719A T790M; 72 hours
T3 construct: expressed in transfected cells; host or cells: Ba/F3 (retroviral transduction, pBabe-Puro based vectors)
Description: as §1, §2

[4] = target: T4, EGFR G724S T790M (Homo sapiens, UniProt P00533, G724S/T790M); assay: Ba/F3 cell drug screening, Cell Titer Glo; format: cell-based; settings: Ba/F3 cells expressing EGFR G724S T790M; 72 hours
T4 construct: expressed in transfected cells; host or cells: Ba/F3 (retroviral transduction, pBabe-Puro based vectors)
Description: as §1, §2

[5] = target: T5, EGFR L718V (Homo sapiens, UniProt P00533, L718V); assay: Ba/F3 cell drug screening, Cell Titer Glo; format: cell-based; settings: Ba/F3 cells expressing EGFR L718V; 72 hours
T5 construct: expressed in transfected cells; host or cells: Ba/F3 (retroviral transduction, pBabe-Puro based vectors)
Description: as §1, §2

[6] = target: T6, EGFR L833F (Homo sapiens, UniProt P00533, L833F); assay: Ba/F3 cell drug screening, Cell Titer Glo; format: cell-based; settings: Ba/F3 cells expressing EGFR L833F; 72 hours
T6 construct: expressed in transfected cells; host or cells: Ba/F3 (retroviral, pBabe-Puro based vector)
Description: as §1, §2

[7] = target: T7, EGFR L858R/L718V (Homo sapiens, UniProt P00533, L718V/L858R); assay: Ba/F3 cell drug screening, Cell Titer Glo; format: cell-based; settings: Ba/F3 cells expressing EGFR L858R/L718V; 72 hours
T7 construct: host or cells: Ba/F3 (retroviral transduction, pBabe-Puro based vectors)
Description: as §1, §2

[8] = target: T8, EGFR L858R/L792H (Homo sapiens, UniProt P00533, L792H/L858R); assay: Ba/F3 cell drug screening, Cell Titer Glo; format: cell-based; settings: Ba/F3 cells expressing EGFR L858R/L792H; 72 hours
T8 construct: expressed in transfected cells; host or cells: Ba/F3 (retroviral transduction, pBabe-Puro based vectors)
Description: as §1, §2

[9] = target: T9, EGFR L858R/V834L (Homo sapiens, UniProt P00533, L858R/V834L); assay: Ba/F3 cell drug screening, Cell Titer Glo; format: cell-based; settings: Ba/F3 cells expressing EGFR L858R/V834L; 72 hours
T9 construct: expressed in transfected cells; host or cells: Ba/F3 (retroviral, pBabe-Puro based vector)
Description: as §1, §2

[10] = target: T10, EGFR T725M (Homo sapiens, UniProt P00533, T725M); assay: Ba/F3 cell drug screening, Cell Titer Glo; format: cell-based; settings: Ba/F3 cells expressing EGFR T725M; 72 hours
T10 construct: expressed in transfected cells; host or cells: Ba/F3 (retroviral, pBabe-Puro based vector; created by GeneScript from EGFR WT)
Description: as §1, §2

[11] = system: exon 20 loop insertion mutations; assay: Ba/F3 drug screening, mutant/WT IC50 by class of EGFR TKI; format: cell-based; settings: Ba/F3 cells expressing exon 20 loop insertion mutations
Description: as §1
After 48-72 hours of transduction, 2 μg/ml puromycin (Invitrogen) was added to Ba/F3 cell lines in complete RPMI. To select for EGFR positive cell lines, cells were stained with PE-EGFR (Biolegend) and sorted by FACS. […] Plates were incubated for a minimum of 10 minutes, and bioluminescence was determined using a FLUOstar OPTIMA plate reader (BMG LABTECH). […] Statistical differences between groups were determined by ANOVA as described in the figure legends.
Heatmap generation and spearman correlations of groups. […] Hierarchical clustering was determined by Euclidean distance between Mut/WT ratios. […]

[12] = system: PDXs harboring EGFR S768dupSVD exon 20 loop insertion mutation; assay: PDX tumor growth; format: in vivo, mice; settings: drug 5 days per week, day 21
[13] = system: PDXs with G719A mutations; assay: PDX tumor growth; format: in vivo, mice; settings: 2.5 mg/kg poziotinib; 5 mg/kg and 20 mg/kg osimertinib; five days per week, day 28

SMILES: C=CC(=O)N1CCC(Oc2cc3c(Nc4ccc(Cl)c(Cl)c4F)ncnc3cc2OC)CC1 [Poziotinib]
- Response of Cells Comprising PACC EGFR Mutations to Second-Generation TKIs [1]: 0.008664
- Response of Cells Comprising T790M-like-S EGFR Mutations to Second-Generation TKIs [2]: 19.53
- Response of Cells Comprising T790M-like-S EGFR Mutations to Second-Generation TKIs [3]: 0.4851
- Response of Cells Comprising T790M-like-R EGFR Mutations to Second-Generation TKIs [4]: 2.924
- Response of Cells Comprising PACC EGFR Mutations to Second-Generation TKIs [5]: 0.2403
- Response of Cells Comprising Classical-Like EGFR Mutations to Second-Generation TKIs [6]: 0.01839
- Response of Cells Comprising PACC EGFR Mutations to Second-Generation TKIs [7]: 0.01621
- Response of Cells Comprising PACC EGFR Mutations to Second-Generation TKIs [8]: 0.07789
- Response of Cells Comprising Classical-Like EGFR Mutations to Second-Generation TKIs [9]: 0.08599
- Response of Cells Comprising Classical-Like EGFR Mutations to Second-Generation TKIs [10]: 0.003297
- sensitivity of Ex20ins mutations in vitro [11]: sensitive
- sensitivity of Ex20ins mutations in vivo [12]: sensitive
- sensitivity of mice harboring PDXs with G719A mutations [13]: most sensitive
